# Source: patent US10646538B2, “Self-assembling tripeptides” (ENDO Biologics, Inc., priority 2014, dated 2020)
# “Also recorded” adds a separate entry of the source. Peptide text beside a SMILES is read from it.
# Columns and labels:
# Format in all cases: physicochemical
# [1] = Aggregation behaviour of tripeptides dissolved in water at pH 7; details: for solubility: water / D2O; for aggregation behavior on dissolving in water: water at pH 7, 30 mmol/L
# Experimental: Tripeptides were dissolved in water by sonication and vortexing, followed by bringing the pH to 7.2±0.1 by dropwise addition of 0.25 M NaOH solution to a final concentration of 30 mmol/L. These were diluted to 10 mmol/L for DLS and NMR experiments. Note that the KYF gel could also be prepared by direct dissolution into a 0.1 M phosphate buffer at pH 7. Characterization of the resulting samples took places at least 24 hours after sample preparation. Samples for FTIR and NMR analysis were prepared using D2O (99.9% D) and NaOD solution instead of H2O and NaOH.
# The bottom half of Table 2 contains the tripeptides that were selected for synthesis and experimental characterization. The selection was made to include a wide range of AP and APH scores, including PFF (#1 from AP score) and KFD (#1 from APH score) and peptides that adhere to one or more of our design rules formulated above, such as KYF. […] These peptides were dissolved in water at pH 7 and their aggregation behavior was studied in order to test the predictive value of our method.
# [2] = Diffusion Ordered NMR spectroscopy (DOSY); details: 10 mM in D2O, pH 7, 298 K
# Excerpt: DOSY spectra were acquired at 600 MHz using a Bruker Avance 600 spectrometer using the Bruker microprogram dstebpgp3sat at 298 K. The eddy current delay (Te) was set to 5 ms. The diffusion time was adjusted to 100 ms. […] The pulse gradient was increased from 2 to 95% of the maximum gradient strength using a linear ramp 16 k data points in the F2 dimension (20 ppm) and 16 data points in the F1 dimension were collected. […] This method is able to determine the diffusion coefficient D of supramolecular aggregates and therefore their relative size, as described by the Stokes-Einstein equation.^43,44 Diffusion constants for all the studied tripeptides can be found in Table 2. […] For the remaining peptides, DOSY results are in good agreement with the predicted aggregation propensity at 50 ns.
# [3] = Dynamic light scattering (DLS); details: 10 mM at pH 7, 25° C.
# Experimental: The dynamic light scattering (DLS) measurements were carried out on 10 mmol/L peptide solutions (i.e. below the critical gelation concentration) by using a 3 DDLS spectrophotometer (LS instruments, Fribourg, Switzerland) using vertically polarized He—Ne laser light (25 mW with wavelength of 632.8 nm) with an avalanche photodiode detector at an angle of 90° at 25° C. Intensity autocorrelation functions were recorded and analyzed by means of the cumulant method in order to determine the intensity weighted diffusion coefficients D and the average hydrodynamic radius Rh by using the Stokes-Einstein equation, Rh=kBT/6πηD, where kB is the Boltzmann constant, T is the absolute temperature and η is the solvent viscosity at the given temperature.
# To further confirm the presence (and size) of the peptide aggregates formed, dynamic light scattering (DLS) experiments were performed on the KYF gel, PFF suspension and KFD and GGG solutions.
# [4] = FTIR spectroscopy, amide I region; details: 30 mM in D2O at pH 7
# Experimental: Samples were contained in a standard IR transmission cell (Harrick Scientific) between two 2 mm CaF2 windows, separated by a polytetrafluoroethylene (PFTE) spacer of 50 μm thickness. Spectra were recorded on a Bruker Vertex 70 spectrometer by averaging 25 scans at a spectral resolution of 1 cm^−1. Spectra were corrected for absorption from a phosphate buffer blank sample and absorptions from trifluoroacetic acid (TFA).
# The secondary structure of the peptides can be probed by infrared (IR) spectroscopy.^45,46 When aggregation takes place via intermolecular hydrogen bonding of the amide groups, the 1650-1655 cm^−1 absorption observed for free peptides in solution typically narrows and shifts to lower frequency, while the 1595 cm^−1 peak, assigned to carboxylate groups, broadens or decreases in intensity due to protonation or salt bridge formation. […] Note that small absorption maxima in the 1670-1685 cm^−1 region are assigned to residual trifluoro-acetic acid absorption and the 1570-1580 cm^−1 band for KFD is assigned to the aspartic acid side chain carboxylate group.
# For KYF, a dramatic change in the amide region was noticed upon gelation with intense IR absorption peaks at 1621 and 1649 cm^−1 for the amide groups and 1568 cm^−1 for salt-bridged carboxylate groups.
# [5] = pH dependence of the gelation of KYF
# Experimental: We investigated the effects of pH on the gelation of the tripeptide KYF in aqueous solvent. […] The alteration of the pH will affect the protonation state of the ionisable groups on KYF i.e., N and C termini and the lysine side groups.
# pH measurements were carried out ranging from pH 5 to 8. At each pH measurement an image was taken to show the gelation behaviour. The pH was altered using 0.5M NaOH which is added drop wise into the vial, vortexed to ensure a complete mix then the pH is measured until a stable value is obtained.
# Initially, the peptide sample is dissolve in water and the pH is recorded. At this point the pH is below the pKa of the C-terminus therefore the terminal acid is protonated and gelation should not occur, which is what was observed.
# [6] = TEM of tripeptide samples; details: samples at pH 7
# Experimental: Carbon-coated copper grids (200 mesh) were glow discharged in air for 30 s. The support film was touched onto the gel surface for 3 s and blotted down using filter paper. Negative stain ([…], 1% aqueous methylamine vanadate (Nanovan; Nanoprobes) was applied and the mixture was blotted again using filter paper to remove excess. The dried specimens were then imaged using a LEO 912 energy filtering transmission electron microscope operating at 120 kV fitted with 14 bit/2 K Proscan CCD camera
SMILES,solubility [1],aggregation behavior on dissolving in water [1],diffusion constant (DOSY) [2],average hydrodynamic radius / relative size of the aggregates (DLS) [3] [μm],secondary structure from amide I IR absorption [4],nanostructure seen by TEM [6],other results
N[C@@H](Cc1ccccc1)C(=O)N[C@@H](Cc1c[nH]cn1)C(=O)N[C@@H](Cc1ccccc1)C(=O)O [FHF] (H-Phe-His-Phe-OH),poor solubility,suspensions,,,,,
N[C@@H](CO)C(=O)N[C@@H](Cc1ccc(O)cc1)C(=O)N[C@@H](Cc1ccccc1)C(=O)O [SYF] (H-Ser-Tyr-Phe-OH),insoluble in water,,,,,,
N=C(N)NCCC[C@H](N)C(=O)N[C@@H](Cc1ccc(O)cc1)C(=O)N[C@@H](Cc1ccccc1)C(=O)O [RYF] (H-Arg-Tyr-Phe-OH),,did not give a gel,,,,,
"NCC(=O)NCC(=O)NCC(=O)O [GGG, reference compound] (H-Gly-Gly-Gly-OH)",,,highest diffusion constant,0.10,,,
NCCCC[C@H](N)C(=O)N[C@@H](Cc1ccc(O)cc1)C(=O)N[C@@H](Cc1ccccc1)C(=O)O [KYF] (H-Lys-Tyr-Phe-OH),,translucent self-supporting hydrogel,lowest diffusion constant,0.26,well-ordered peptide nanostructure,entangled fibrous network,"pH of critical gelation ([5]; aqueous, pH raised with 0.5M NaOH): 6.9-7.05; gelation behaviour ([5]; pH 2.21 to 6.7, aqueous): remained as a clear solution; gelation behaviour ([5]; pH 6.9, aqueous): weak gel; gelation behaviour ([5]; pH 7.05, aqueous): self-supporting hydrogel; gelation behaviour ([5]; pH 7.05 until 7.98, aqueous): stronger gels"
CC[C@H](C)[C@H](NC(=O)[C@H](Cc1ccc(O)cc1)NC(=O)[C@@H](N)Cc1ccccc1)C(=O)O [FYI] (H-Phe-Tyr-Ile-OH),poor solubility,precipitated,,,,,
NCCCC[C@H](N)C(=O)N[C@@H](Cc1ccccc1)C(=O)N[C@@H](CC(=O)O)C(=O)O [KFD] (H-Lys-Phe-Asp-OH),,,intermediate diffusion rate,0.13,no extended secondary structure formation,strongly curved fibers together with more amorphous regions,
O=C(O)[C@H](Cc1ccccc1)NC(=O)[C@H](Cc1ccccc1)NC(=O)[C@@H]1CCCN1 [PFF] (H-Pro-Phe-Phe-OH),poor solubility; also recorded: low solubility,suspensions,,0.70,β-sheet like arrangement of the amide groups,short crystalline nanostructures with a large aspect ratio,
CC[C@H](C)[C@H](N)C(=O)N[C@@H](Cc1ccc(O)cc1)C(=O)N[C@@H](Cc1ccccc1)C(=O)O [IYF] (H-Ile-Tyr-Phe-OH),poor solubility,precipitated,,,,,
